Test results as given in the supplement of paper PMC10307832.

What was measured:
Assay in all cases: relative viability (nuclei count vs DMSO), 5 days (fraction); higher = more cells survive
Imatinib + Bortezomib = compound: Cc1ccc(NC(=O)c2ccc(CN3CCN(C)CC3)cc2)cc1Nc1nccc(-c2cccnc2)n1 [Imatinib] + CC(C)C[C@H](NC(=O)[C@H](Cc1ccccc1)NC(=O)c1cnccn1)B(O)O [Bortezomib] (partner 0.002 µM)
Method in brief: (§1)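 Relative viability divides the nuclei count in treated wells by that in vehicle wells. Lung cancer cell lines were seeded in 1536-well plates, dosed by pin tool the next day, and fixed and stained after 5 days in one step with final 0.05% Triton X-100, 1% formaldehyde and 1 ug/ml Hoechst. Dosing was a single drug or a fixed anchor-drug dose plus five library-drug doses (not always all listed) in √10 steps, and values are medians of duplicate plates imaged at 4×.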

Imatinib + Pictilisib = compound: Cc1ccc(NC(=O)c2ccc(CN3CCN(C)CC3)cc2)cc1Nc1nccc(-c2cccnc2)n1 [Imatinib] + CS(=O)(=O)N1CCN(Cc2cc3nc(-c4cccc5[nH]ncc45)nc(N4CCOCC4)c3s2)CC1 [Pictilisib] (partner 1 µM)
Method in brief: as §1

Imatinib + Tozasertib = compound: Cc1ccc(NC(=O)c2ccc(CN3CCN(C)CC3)cc2)cc1Nc1nccc(-c2cccnc2)n1 [Imatinib] + Cc1cc(Nc2cc(N3CCN(C)CC3)nc(Sc3ccc(NC(=O)C4CC4)cc3)n2)n[nH]1 [Tozasertib] (partner 0.1 µM)
Method in brief: as §1

Imatinib + Pemetrexed = compound: Cc1ccc(NC(=O)c2ccc(CN3CCN(C)CC3)cc2)cc1Nc1nccc(-c2cccnc2)n1 [Imatinib] + Nc1nc2[nH]cc(CCc3ccc(C(=O)N[C@@H](CCC(=O)O)C(=O)O)cc3)c2c(=O)[nH]1 [Pemetrexed] (partner 0.2 µM)
Method in brief: as §1

Cell Line	relative viability (Imatinib + Bortezomib; first compound 0.02 µM)	relative viability (Imatinib + Bortezomib; first compound 0.2 µM)	relative viability (Imatinib + Bortezomib; first compound 2 µM)	relative viability (Imatinib + Pictilisib; first compound 0.02 µM)	relative viability (Imatinib + Pictilisib; first compound 0.2 µM)	relative viability (Imatinib + Pictilisib; first compound 0.6325 µM)	relative viability (Imatinib + Pictilisib; first compound 2 µM)	relative viability (Imatinib + Tozasertib; first compound 0.02 µM)	relative viability (Imatinib + Tozasertib; first compound 0.2 µM)	relative viability (Imatinib + Tozasertib; first compound 2 µM)	relative viability (Imatinib + Pemetrexed; first compound 0.02 µM)	relative viability (Imatinib + Pemetrexed; first compound 0.06325 µM)	relative viability (Imatinib + Pemetrexed; first compound 0.2 µM)	relative viability (Imatinib + Pemetrexed; first compound 0.6325 µM)	relative viability (Imatinib + Pemetrexed; first compound 2 µM)	relative viability (Imatinib + Bortezomib; first compound 0.6325 µM)	relative viability (Imatinib + Tozasertib; first compound 0.6325 µM)	relative viability (Imatinib + Bortezomib; first compound 0.06325 µM)	relative viability (Imatinib + Pictilisib; first compound 0.06325 µM)	relative viability (Imatinib + Tozasertib; first compound 0.06325 µM)
201T	1.08	1.13	1.06	0.711	0.664	0.729	0.679	0.98	1.06	0.859	0.317	0.24	0.391	0.284	0.31	–	–	–	–	–
A-427	1.11	1.11	0.853	0.749	0.692	0.739	0.663	0.192	0.176	0.197	1.05	1.08	1.02	–	0.971	1.05	0.195	–	–	–
ABC-1	0.311	0.282	0.348	0.685	0.669	0.914	0.679	0.211	0.221	0.141	–	–	–	–	–	0.235	0.185	–	–	–
BEN	0.975	0.796	0.581	0.609	0.619	0.491	0.673	0.523	0.489	0.51	0.832	0.835	0.691	0.89	0.879	0.79	0.492	0.641	0.383	0.546
CAL-12T	1.07	0.927	1.02	0.507	0.486	0.667	0.524	0.369	0.311	0.225	1.35	1.33	1.25	1.32	1.28	0.968	0.293	1.1	0.433	–
COR-L23	1.38	1.2	0.947	1.02	1.1	0.786	–	0.226	0.165	0.154	0.196	0.206	0.209	0.196	0.159	1.18	0.161	1.03	0.715	0.174
COR-L 105	1.08	0.73	–	0.37	0.508	0.406	0.385	0.365	0.359	0.311	1.33	1.27	1.13	1.06	0.983	0.636	0.317	0.871	0.372	0.364
Calu-6	1.13	1.01	0.867	1.18	1.16	0.887	0.89	–	–	–	–	–	–	–	–	1.08	–	1.06	1.11	–
ChaGo-K-1	0.975	1.01	–	0.88	0.589	–	–	0.223	0.208	0.21	0.263	–	0.255	0.268	0.251	1.15	0.185	1.37	0.497	0.189
EKVX	1.03	1.13	1.09	0.419	0.475	0.528	0.508	–	0.348	0.354	0.442	–	0.509	0.391	–	1.15	0.287	1.14	0.343	0.389
EMC-BAC-2	1.11	1.21	1.07	0.513	0.614	0.536	0.582	0.297	0.33	0.277	0.443	0.483	0.447	0.507	0.424	1.16	0.283	1.11	0.505	0.296
EPLC-272H	0.98	1.15	1.06	0.301	0.402	0.344	0.286	0.366	0.256	0.207	0.261	–	–	0.328	0.336	1.06	0.258	–	–	–
H3255	0.796	0.729	0.7	0.493	0.507	0.447	0.426	0.604	0.638	0.614	0.536	0.499	0.554	0.565	0.573	0.699	0.575	–	0.488	0.608
HARA	0.952	1.5	1.1	0.42	0.389	0.363	0.339	0.083	0.107	0.101	0.256	0.235	0.23	0.286	0.227	1.09	0.0993	1.25	0.406	–
HCC-15	1.03	1.07	1.02	0.719	0.777	0.809	0.698	0.472	0.389	0.284	0.225	0.234	0.236	0.218	0.211	1.13	0.402	0.93	0.324	–
HCC-44	1.04	0.979	0.813	0.604	0.974	0.548	0.529	1.03	1.01	0.735	0.653	–	0.68	0.671	0.544	0.896	0.109	0.945	0.653	0.558
HCC-78	0.33	0.599	0.479	0.208	0.198	0.207	0.2	0.393	0.427	0.427	0.865	0.955	0.949	0.916	0.882	0.358	0.409	0.34	0.177	0.455
HCC-366	1.46	1.5	0.929	0.131	0.19	0.144	0.223	0.193	0.109	0.0718	0.178	0.197	0.189	0.173	0.128	1.07	0.0574	–	0.119	–
